From patent publication US8153410B2, “Alternate morpheein forms of allosteric proteins as a target for the development of bioactive molecules” (Fox Chase Cancer Center, priority 2003, dated 2012)
Read-outs that look alike come from different tables or passages of the source.

How the values were obtained:
[1] = target: P. aeruginosa PBGS (Pseudomonas aeruginosa, UniProt Q59643); test: native PAGE gel shift of P. aeruginosa PBGS; format: biochemical; details: P. aeruginosa PBGS ~1 mg/ml
Method: (§1) FIG. 33 illustrates the species-specific effects of morphlock-1 on PBGS—FIG. 33(a) Dose-response curves showing morphlock-1 inhibition of pea PBGS at 1 μg/ml (∘) and human PBGS at 0.6 μg/ml (Δ) and 10 μg/ml (□). The proteins were incubated in the presence of 10× inhibitor for 30 minutes at 37° C. prior to assay. The concentrations on the X-axis represent the final concentration of morphlock-1 in the assay. FIG. 33(b). The IC50 for morphlock-1 is a function of pea PBGS concentration. IC50 values were determined as per part (a) using the noted concentrations of pea PBGS. (c) Native PAGE evaluation of the effect of morphlock-1 on the quaternary structure equilibria of PBGS (˜1 mg/ml) from D. melanogaster, P. aeruginosa, V. cholerae, and H. sapiens. Note that the charge/mass ratio is not the same for PBGS from different species.
The putative morphlock-1 binding site is phylogenetically variable (see below). As such, morphlock-1 would not be expected to inhibit human PBGS. The effect of morphlock-1 on the activity of human PBGS was also determined at the midpoint of the protein concentration-dependent specific activity. […] To further establish the species-selectivity of morphlock-1, the gel shift assay was also carried out for PBGS from P. aeruginosa, and V. cholerae.

[2] = target: T1, pea PBGS (Pisum sativum, UniProt P30124); test: pea PBGS activity assay (inhibition, protein concentration dependent specific activity); format: biochemical; set-up: made in house
T1 sequence (P30124 69-398 limits assumed): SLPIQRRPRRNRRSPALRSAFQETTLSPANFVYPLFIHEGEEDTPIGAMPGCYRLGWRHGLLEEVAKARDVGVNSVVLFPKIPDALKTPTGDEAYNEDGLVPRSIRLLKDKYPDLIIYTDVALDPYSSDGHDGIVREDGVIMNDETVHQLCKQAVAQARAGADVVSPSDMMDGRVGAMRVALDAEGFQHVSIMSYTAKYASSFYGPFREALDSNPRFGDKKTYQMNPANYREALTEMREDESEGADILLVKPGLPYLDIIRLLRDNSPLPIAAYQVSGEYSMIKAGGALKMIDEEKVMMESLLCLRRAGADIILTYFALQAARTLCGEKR
Method: FIG. 32(a) The inhibitor morphlock-1 is illustrated as posed by Glide. The subunits A, B, and E are illustrated as ribbon diagram. Morphlock-1 is shown with carbon atoms and illustrated as ball and stick. FIG. 32(b) The chemical structure of morphlock-1. […] Pea PBGS was incubated with various concentrations of morphlock-1 (in a DMSO solution). Each concentration of morphlock-1 with a fixed amount of DMSO was incubated with protein for 30 minutes at 37° C. prior to resolution on 12.5% polyacrylamide native PhastGels. […] (d) The protein concentration dependence of pea PBGS specific activity is illustrated. […] The final concentration of morphlock-1 in the inhibited assay was 5 μM, and the concentration of PBGS in the inhibited and control assays ranged from 0.05-50 μg/mL (0.014-1.4 μM).
as §1, with “The” for “FIG. 33 illustrates the species-specific effects of morphlock-1 on PBGS—FIG. 33(a) Dose-response curves showing morphlock-1 inhibition of pea PBGS at 1 μg/ml (∘) and human PBGS at 0.6 μg/ml (Δ) and 10 μg/ml (□). The”, “The IC50 for morphlock-1 is a function of pea PBGS concentration.” left out
The dose response curve for morphlock-1 inhibition of pea PBGS (FIG. 37a) was initially carried out at 0.03 μM pea PBGS, where the hexamer is a significant component of the equilibrium mixture; the morphlock-1 concentration was varied from 0.1 μM to 0.1 mM.
The dose response curve for morphlock-1 inhibition of pea PBGS (FIG. 33(a)) was initially carried out at 0.03 μM pea PBGS, where the hexamer is a significant component of the equilibrium, in order to optimize the observed inhibition; the morphlock-1 concentration was varied from 0.1 μM to 0.1 mM.

Sequence of P. aeruginosa PBGS (Q59643 whole entry): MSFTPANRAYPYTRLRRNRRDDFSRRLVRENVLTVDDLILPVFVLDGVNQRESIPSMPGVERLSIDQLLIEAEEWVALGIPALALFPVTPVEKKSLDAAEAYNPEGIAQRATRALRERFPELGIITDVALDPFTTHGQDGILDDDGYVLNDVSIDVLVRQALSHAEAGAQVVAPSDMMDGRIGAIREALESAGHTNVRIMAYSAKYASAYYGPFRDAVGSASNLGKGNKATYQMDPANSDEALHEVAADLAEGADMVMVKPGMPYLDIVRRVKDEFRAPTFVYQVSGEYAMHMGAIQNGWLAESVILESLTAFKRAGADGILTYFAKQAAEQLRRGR

O=C1Nc2ccc(S(=O)(=O)NCC(O)c3ccc([N+](=O)[O-])cc3)c3cccc1c23 (stereo not shown) [morphlock-1, 2-oxo-1,2-dihydro-benzo(cd)indole-6-sulfonic acid[2-hydroxy-2-(4-nitro-phenyl)-ethyl]-amide]
perturbation of the quaternary structure equilibrium, gel shift assay [1]: did not cause any perturbation of the quaternary structure equilibrium
IC50 ([2]; 0.03 μM pea PBGS, morphlock-1 0.1 μM to 0.1 mM, 30 minutes at 37° C. prior to assay, read-out: apparent IC50 of morphlock-1 inhibition of pea PBGS): 1200 nM
IC50 ([2]; low protein concentration, activity assays, read-out: IC50 by kinetic analysis / activity assays (and native PAGE with more sensitive staining)): ~1000 nM
K(0.5) of the protein concentration dependent specific activity in the presence of morphlock-1 ([2]; morphlock-1 set at 5 μM, K(0.5) without morphlock-1 0.064 μM): 0.134 µM
